# According to ChEMBL document CHEMBL5465560, “Selectivity Literature for EUbOPEN Chemogenomic Library” (2024):
# Tests used:
# [1] = target: Mitogen-activated protein kinase 1 (Homo sapiens, UniProt P28482); experiment: Selectivity interaction (KinomeScan (DiscoverX)) EUB0001049a MAPK1; settings: at 1 µM
# [2] = target: Peroxisome proliferator-activated receptor gamma (Homo sapiens) (UniProt P37231); experiment: Selectivity interaction (Eurofins CEREP Diversity Profile (receptors and ion channels)) EUB0000279b PPARG; settings: at 10 µM
# SRSF protein kinase 1 = SRSF protein kinase 1 (Homo sapiens, UniProt Q96SB4); experiment: Selectivity interaction (Kinase panel (DSF assay)) EUB0001558a SRPK1
# [3] = target: Ribosomal protein S6 kinase alpha-4 (Homo sapiens) (UniProt O75676); experiment: Selectivity interaction (Kinase panel (KiNativ target engagement assay in Jurkat cells)) EUB0001635a RPS6KA4; assay type: cell-based; settings: Selectivity number of off-targets 0.0, Selectivity number of targets 233.0, Source Knowledge https://www.sciencedirect.com/science/article/pii/S2451945619300674?via%3Dihub, at 1 µM
# [4] = target: T1, Serine/threonine-protein kinase DCLK2 (Homo sapiens) (UniProt Q8N568); settings: at 10 µM
# T1 sequence (whole entry): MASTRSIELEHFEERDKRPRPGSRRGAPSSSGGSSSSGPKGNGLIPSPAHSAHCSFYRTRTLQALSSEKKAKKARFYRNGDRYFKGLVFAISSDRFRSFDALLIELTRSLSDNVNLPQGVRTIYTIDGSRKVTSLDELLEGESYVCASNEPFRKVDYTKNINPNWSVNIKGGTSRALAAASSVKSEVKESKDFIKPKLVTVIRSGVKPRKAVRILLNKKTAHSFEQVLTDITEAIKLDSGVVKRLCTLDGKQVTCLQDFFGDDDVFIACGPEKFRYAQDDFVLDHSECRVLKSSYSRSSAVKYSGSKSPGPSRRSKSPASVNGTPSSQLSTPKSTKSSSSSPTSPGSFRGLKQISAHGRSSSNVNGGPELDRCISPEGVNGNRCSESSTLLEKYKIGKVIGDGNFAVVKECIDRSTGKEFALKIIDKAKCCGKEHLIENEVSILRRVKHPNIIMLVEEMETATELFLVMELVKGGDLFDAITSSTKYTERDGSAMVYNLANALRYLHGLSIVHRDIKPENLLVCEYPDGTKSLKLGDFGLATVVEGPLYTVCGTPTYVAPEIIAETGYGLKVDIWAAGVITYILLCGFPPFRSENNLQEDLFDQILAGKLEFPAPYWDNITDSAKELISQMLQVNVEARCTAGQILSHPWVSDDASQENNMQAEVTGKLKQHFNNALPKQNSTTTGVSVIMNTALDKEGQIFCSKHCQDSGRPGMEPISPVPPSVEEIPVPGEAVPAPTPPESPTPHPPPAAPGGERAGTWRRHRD
# [5] = target: Mitogen-activated protein kinase kinase kinase kinase 1 (Homo sapiens) (UniProt Q92918); settings: at 10 µM
# [6] = target: T2, Serine/threonine-protein kinase 17A (Homo sapiens) (UniProt Q9UEE5); experiment: Selectivity interaction (Kinase panel (DSF assay)) EUB0001559a STK17A
# T2 sequence (whole entry): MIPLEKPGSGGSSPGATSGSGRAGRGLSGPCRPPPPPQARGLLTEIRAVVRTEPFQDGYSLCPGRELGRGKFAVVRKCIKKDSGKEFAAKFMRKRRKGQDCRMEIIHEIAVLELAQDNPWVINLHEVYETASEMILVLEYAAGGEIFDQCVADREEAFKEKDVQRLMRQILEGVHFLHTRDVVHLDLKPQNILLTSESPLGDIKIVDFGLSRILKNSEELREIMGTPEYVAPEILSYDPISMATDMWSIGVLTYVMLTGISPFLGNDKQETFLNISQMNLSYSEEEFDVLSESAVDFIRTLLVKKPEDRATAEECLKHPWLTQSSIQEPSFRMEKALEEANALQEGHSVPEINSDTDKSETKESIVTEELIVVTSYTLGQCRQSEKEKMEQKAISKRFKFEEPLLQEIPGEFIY
# [7] = target: Activin receptor type-2A (Homo sapiens) (UniProt P27037); experiment: Selectivity interaction (KinomeScan (DiscoverX)) EUB0000092b ACVR2A; settings: at 10 µM
# [8] = target: Dual specificity testis-specific protein kinase 1 (Homo sapiens) (UniProt Q15569); experiment: Selectivity interaction (KinomeScan (DiscoverX)) EUB0000092b TESK1; settings: at 10 µM
# [9] = target: Platelet-derived growth factor receptor alpha (Homo sapiens, UniProt P16234); settings: at 10 µM
# [10] = target: T3, Dual specificity mitogen-activated protein kinase kinase 3 (Homo sapiens) (UniProt P46734); experiment: Selectivity interaction (KinomeScan (DiscoverX)) EUB0000695a MAP2K3; settings: at 100 nM
# T3 sequence (whole entry): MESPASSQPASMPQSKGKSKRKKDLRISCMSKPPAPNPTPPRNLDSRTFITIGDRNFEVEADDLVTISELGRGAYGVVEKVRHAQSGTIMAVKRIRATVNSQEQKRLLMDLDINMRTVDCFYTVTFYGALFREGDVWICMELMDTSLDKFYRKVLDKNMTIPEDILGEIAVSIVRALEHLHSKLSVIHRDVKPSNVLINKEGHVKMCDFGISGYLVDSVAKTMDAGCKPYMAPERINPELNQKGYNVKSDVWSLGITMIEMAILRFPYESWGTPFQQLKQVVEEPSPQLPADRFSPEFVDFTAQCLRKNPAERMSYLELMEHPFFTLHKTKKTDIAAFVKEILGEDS
# Sequence of Peroxisome proliferator-activated receptor gamma (Homo sapiens) (P37231 whole entry): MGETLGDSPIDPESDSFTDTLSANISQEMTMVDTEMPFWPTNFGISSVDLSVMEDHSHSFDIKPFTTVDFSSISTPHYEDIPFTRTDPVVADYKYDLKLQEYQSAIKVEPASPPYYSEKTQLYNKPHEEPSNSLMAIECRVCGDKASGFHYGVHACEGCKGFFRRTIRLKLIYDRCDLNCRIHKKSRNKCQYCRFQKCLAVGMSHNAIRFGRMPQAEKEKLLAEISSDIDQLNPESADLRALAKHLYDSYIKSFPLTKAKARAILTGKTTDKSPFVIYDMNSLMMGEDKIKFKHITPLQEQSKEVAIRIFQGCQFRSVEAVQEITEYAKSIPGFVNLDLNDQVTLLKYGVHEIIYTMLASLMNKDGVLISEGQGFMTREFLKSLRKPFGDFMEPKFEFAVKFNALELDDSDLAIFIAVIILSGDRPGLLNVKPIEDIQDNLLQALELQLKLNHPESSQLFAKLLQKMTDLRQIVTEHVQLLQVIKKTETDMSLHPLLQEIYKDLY
# Sequence of Dual specificity testis-specific protein kinase 1 (Homo sapiens) (Q15569 whole entry, looked up): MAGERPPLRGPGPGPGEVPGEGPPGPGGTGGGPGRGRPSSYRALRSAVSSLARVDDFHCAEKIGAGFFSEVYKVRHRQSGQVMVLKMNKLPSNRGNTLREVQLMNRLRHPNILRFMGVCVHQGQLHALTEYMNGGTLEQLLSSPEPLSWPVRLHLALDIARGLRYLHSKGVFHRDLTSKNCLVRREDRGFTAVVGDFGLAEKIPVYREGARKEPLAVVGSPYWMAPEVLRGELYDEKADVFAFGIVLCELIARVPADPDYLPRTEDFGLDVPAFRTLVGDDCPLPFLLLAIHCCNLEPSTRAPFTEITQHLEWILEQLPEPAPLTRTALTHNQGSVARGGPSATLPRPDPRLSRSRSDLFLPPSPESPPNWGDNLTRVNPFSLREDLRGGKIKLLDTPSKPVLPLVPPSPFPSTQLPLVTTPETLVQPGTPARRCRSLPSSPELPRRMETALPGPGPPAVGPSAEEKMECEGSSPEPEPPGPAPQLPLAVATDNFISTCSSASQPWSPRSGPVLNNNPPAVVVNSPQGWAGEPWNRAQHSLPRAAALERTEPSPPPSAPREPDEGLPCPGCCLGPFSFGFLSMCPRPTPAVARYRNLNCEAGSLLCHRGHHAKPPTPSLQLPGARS
# Sequence of Mitogen-activated protein kinase 1 (P28482 whole entry): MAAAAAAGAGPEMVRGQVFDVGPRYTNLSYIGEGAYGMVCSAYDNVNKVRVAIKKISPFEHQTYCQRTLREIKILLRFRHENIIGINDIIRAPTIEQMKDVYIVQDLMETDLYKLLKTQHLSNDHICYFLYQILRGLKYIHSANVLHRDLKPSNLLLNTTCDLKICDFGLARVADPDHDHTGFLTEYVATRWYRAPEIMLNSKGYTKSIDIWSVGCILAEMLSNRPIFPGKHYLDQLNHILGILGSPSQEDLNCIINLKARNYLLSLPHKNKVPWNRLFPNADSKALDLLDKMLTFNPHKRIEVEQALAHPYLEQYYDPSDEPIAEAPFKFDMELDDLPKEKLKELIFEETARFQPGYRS
# Sequence of Activin receptor type-2A (Homo sapiens) (P27037 whole entry): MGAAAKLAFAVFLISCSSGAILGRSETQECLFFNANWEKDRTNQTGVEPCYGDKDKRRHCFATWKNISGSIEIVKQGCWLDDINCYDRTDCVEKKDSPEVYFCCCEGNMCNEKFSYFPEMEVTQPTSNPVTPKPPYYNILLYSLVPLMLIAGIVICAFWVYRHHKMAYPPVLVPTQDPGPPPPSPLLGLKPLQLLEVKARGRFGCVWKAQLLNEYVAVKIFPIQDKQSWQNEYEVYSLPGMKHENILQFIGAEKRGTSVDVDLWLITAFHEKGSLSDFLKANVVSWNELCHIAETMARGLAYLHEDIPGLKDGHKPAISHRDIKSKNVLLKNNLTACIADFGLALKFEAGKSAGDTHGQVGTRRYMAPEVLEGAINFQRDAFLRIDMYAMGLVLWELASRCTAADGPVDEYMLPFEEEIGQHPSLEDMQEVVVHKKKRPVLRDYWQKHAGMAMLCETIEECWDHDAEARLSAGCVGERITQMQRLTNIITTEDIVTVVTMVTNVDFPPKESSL
# Sequence of SRSF protein kinase 1 (Q96SB4 whole entry): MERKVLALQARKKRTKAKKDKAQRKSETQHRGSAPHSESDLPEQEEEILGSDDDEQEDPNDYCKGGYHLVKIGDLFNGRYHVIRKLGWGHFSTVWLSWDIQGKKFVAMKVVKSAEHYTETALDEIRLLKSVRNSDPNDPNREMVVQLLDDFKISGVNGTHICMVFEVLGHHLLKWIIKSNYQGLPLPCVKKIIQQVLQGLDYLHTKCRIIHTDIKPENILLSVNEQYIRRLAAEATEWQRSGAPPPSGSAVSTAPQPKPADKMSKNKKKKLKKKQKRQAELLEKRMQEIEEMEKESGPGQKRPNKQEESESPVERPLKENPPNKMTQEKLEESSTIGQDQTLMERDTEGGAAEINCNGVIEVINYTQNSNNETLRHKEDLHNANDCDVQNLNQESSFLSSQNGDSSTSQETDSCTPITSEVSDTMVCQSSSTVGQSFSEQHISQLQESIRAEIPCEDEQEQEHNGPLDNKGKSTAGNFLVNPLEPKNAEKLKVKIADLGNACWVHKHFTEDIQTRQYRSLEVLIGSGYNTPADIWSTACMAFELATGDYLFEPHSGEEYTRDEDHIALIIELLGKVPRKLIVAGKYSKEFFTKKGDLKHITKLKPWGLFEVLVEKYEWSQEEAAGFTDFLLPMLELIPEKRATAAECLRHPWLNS
# Sequence of Platelet-derived growth factor receptor alpha (P16234 whole entry): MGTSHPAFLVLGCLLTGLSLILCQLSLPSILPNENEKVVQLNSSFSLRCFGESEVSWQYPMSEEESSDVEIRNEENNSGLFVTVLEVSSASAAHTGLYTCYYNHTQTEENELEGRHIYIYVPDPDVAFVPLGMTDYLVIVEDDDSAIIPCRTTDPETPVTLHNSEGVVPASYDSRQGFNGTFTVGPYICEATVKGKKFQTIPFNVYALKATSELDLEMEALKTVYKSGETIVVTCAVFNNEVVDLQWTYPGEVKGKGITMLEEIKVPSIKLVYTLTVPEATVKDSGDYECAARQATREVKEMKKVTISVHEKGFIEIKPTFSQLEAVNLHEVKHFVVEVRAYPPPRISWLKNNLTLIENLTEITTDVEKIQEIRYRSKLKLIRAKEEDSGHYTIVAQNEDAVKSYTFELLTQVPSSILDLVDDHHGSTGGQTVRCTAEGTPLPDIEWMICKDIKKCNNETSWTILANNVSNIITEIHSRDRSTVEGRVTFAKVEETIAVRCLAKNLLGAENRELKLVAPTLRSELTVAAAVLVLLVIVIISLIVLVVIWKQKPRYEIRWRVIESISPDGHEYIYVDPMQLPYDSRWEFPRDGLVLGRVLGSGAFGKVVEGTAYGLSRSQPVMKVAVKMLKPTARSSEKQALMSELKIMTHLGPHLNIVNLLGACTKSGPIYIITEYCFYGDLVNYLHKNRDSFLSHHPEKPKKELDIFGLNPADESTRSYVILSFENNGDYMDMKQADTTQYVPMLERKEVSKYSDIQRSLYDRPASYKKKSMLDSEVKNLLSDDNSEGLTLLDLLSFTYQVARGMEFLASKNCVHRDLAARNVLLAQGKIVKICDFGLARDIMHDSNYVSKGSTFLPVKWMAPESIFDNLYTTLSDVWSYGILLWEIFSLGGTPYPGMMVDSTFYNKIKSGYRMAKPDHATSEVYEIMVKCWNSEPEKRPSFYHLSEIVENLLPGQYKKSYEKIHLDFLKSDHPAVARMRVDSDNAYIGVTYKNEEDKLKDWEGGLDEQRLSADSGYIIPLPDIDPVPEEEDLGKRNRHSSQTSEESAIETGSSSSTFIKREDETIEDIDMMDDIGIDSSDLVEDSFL
# Sequence of Mitogen-activated protein kinase kinase kinase kinase 1 (Homo sapiens) (Q92918 whole entry, looked up): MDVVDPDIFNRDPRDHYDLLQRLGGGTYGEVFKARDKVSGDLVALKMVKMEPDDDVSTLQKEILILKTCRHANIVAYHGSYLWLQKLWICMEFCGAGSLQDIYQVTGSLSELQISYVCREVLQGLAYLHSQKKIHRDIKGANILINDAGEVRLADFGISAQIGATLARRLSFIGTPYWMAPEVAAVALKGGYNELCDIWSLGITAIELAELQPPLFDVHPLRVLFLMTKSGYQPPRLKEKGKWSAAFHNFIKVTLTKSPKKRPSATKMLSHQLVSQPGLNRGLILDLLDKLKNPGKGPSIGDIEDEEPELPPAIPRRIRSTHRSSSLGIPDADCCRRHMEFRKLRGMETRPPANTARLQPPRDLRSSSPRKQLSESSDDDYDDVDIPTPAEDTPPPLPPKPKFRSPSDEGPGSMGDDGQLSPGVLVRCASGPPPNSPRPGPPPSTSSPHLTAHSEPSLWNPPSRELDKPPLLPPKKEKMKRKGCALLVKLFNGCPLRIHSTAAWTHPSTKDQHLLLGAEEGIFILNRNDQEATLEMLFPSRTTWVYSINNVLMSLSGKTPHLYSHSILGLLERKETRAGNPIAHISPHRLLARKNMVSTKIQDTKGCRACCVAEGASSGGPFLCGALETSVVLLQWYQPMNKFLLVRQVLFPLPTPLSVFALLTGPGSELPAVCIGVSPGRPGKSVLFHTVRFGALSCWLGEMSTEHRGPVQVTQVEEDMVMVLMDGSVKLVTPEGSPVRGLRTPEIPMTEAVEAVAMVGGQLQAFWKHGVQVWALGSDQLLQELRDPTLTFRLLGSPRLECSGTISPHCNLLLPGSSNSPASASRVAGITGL
smiles,measurement,setting,value
COc1cc(Nc2nc(C)cc(-c3cnn4nc(OC)ccc34)n2)cc(C(F)(F)F)c1,% of control,[1],100%
CC(=O)c1cc(-c2ccccc2OCC2CC2)c2ncccn12,% of control,[2],105%
CC(C)(O)[C@H](F)CN1Cc2cc(NC(=O)c3cnn4cccnc34)c(N3CCOCC3)cc2C1=O,dTM,SRSF protein kinase 1,1.1 K
C=CC(=O)Nc1ccc(C(=O)Nc2[nH]nc3c2CN(C(=O)N[C@H](CN(C)C)c2ccccc2)C3(C)C)cc1,% of engagement,[3],-6.3%
CCN(CC)CCCCNc1ncc2cc(-c3cc(OC)cc(OC)c3)c(NC(=O)NC(C)(C)C)nc2n1,% of control,[4],100%
same,% of control,[5],100%
CN(C(=O)c1cnn2cccnc12)c1cc2c(cc1N1CCOCC1)C(=O)N(C[C@@H](F)C(C)(C)O)C2,dTM,[6],-0.1 K
CCC(=O)N1CCN(c2ccc(-n3c(=O)ccc4cnc5ccc(-c6cnc7ccccc7c6)cc5c43)cc2C(F)(F)F)CC1,% of control,[7],47%
same,% of control,[8],58%
Cc1cc([C@@H](C)Nc2ccccc2C(=O)O)c2nc(N3CCOCC3)cc(=O)n2c1 [AZD-6482],% of control,[9],84%
Cc1cc(F)c(C(=O)Nc2cccc(-c3nncn3C(C)C)n2)cc1-n1cnc(C2CC2)c1,% of control,[10],89%
